“And” between values parts separate entries of the source, which are not always exact repeats. Equal entries are not always repeated.
Biological target: T1, Lymphokine-activated killer T-cell-originated protein kinase (Homo sapiens, UniProt Q96KB5)
T1 sequence (Q96KB5 whole entry): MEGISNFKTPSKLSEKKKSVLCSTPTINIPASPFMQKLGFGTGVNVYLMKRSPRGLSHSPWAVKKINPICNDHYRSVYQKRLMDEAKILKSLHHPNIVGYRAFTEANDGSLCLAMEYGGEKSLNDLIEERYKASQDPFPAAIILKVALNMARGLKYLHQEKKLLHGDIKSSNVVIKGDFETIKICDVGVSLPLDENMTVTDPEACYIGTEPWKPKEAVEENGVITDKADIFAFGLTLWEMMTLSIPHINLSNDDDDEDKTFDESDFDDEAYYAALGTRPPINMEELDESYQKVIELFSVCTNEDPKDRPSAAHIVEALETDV
Experiment: Kinase Assay
Conditions: pH 7.4; 25 °C
Protocol: PBK activity was determined in the presence or absence of compounds using fluorescein isothiocyanate-labeled (FITC-labeled) histone H3 peptide as a substrate. […] The serially diluted compounds, 0.8 ng/micro-L PBK (Carna Biosciences) and 100 nM FITC-labeled histone H3 peptide were reacted in a reaction buffer (20 mM HEPES, 0.01% Tween-20, 0.3 mM MgCl2, 2 mM dithiothreitol, 50 micro-M ATP, pH 7.4) at room temperature for 1 hour. The reaction was stopped by the addition of three fold assay volume of progressive binding solution. Following 0.5 hour incubation at room temperature.

Row | SMILES | IC50
1 | CN[C@@H](C)c1ccc(-c2c(O)ccc3[nH]c(=O)c4sccc4c23)cc1 [US8962648, 1082] | 1.1 nM
2 | O=c1[nH]c2ccc(O)c(C3=CCNCC3)c2c2ccsc12 [US8962648, 84] | 0.78 nM
3 | Cc1cc(O)c(-c2ccc(CCN)c(Cl)c2)c2c1[nH]c(=O)c1sccc12 [US8962648, 1264] | 3 nM
4 | O=c1[nH]c2ccc(O)c(-c3ccc(S(=O)(=O)NCCBr)cc3)c2c2ccsc12 [US8962648, 210] | 11.3 nM
5 | COc1ccc2[nH]c(=O)c3sccc3c2c1-c1ccc(CN2CCC(CNC(=O)OC(C)(C)C)CC2)cc1 [US8962648, 139] | 9.4 nM
6 | C[C@H](CN)c1ccc(-c2c(O)ccc3[nH]c(=O)c4sccc4c23)cc1 [US8962648, 1163] | 1.3 nM
7 | CNCCc1ccc(-c2c(O)cc(Cl)c3[nH]c(=O)c4sccc4c23)cc1 [US8962648, 1165] | 58 nM
8 | CNCc1ccc(-c2c(OC)ccc3[nH]c(=O)c4sccc4c23)cc1 [US8962648, 188] | 7.8 nM
9 | Cc1cc(O)c(-c2ccc(C(C)CS(N)(=O)=O)cc2)c2c1[nH]c(=O)c1sccc12 (centres undefined) [US8962648, 1419] | 82 nM
10 | NCCc1ccc(-c2c(O)cc(Cl)c3[nH]c(=O)c4sccc4c23)cc1Cl [US8962648, 1268] | 3.9 nM
11 | Cc1cc(-c2c(O)ccc3[nH]c(=O)c4sccc4c23)ccc1NS(C)(=O)=O [US8962648, 254] | 3 nM
12 | NCCCc1ccc(-c2c(O)ccc3[nH]c(=O)c4sccc4c23)cc1 [US8962648, 273] | 0.74 nM
13 | Cc1cc(O)c(-c2ccc(C3(CN(C)C)CCC3)cc2)c2c1[nH]c(=O)c1sccc12 [US8962648, 1372] | 42 nM
14 | NCC1(c2ccc(-c3c(O)cc(Br)c4[nH]c(=O)c5sccc5c34)cc2)CC1 [US8962648, 1401] | 51 nM
15 | COc1ccc2[nH]c(=O)c3sccc3c2c1-c1ccc([C@@H](C)N)cc1 [US8962648, 274] | 3.8 nM
16 | CCC(c1ccc(-c2c(O)ccc3[nH]c(=O)c4sccc4c23)cc1)N(C)C (centres undefined) [US8962648, 339] | 1.9 nM
17 | CC(=O)Oc1ccc2[nH]c(=O)c3sccc3c2c1-c1ccc(C(C)N)cc1 (centres undefined) [US8962648, 1099] | 33 nM
18 | O=c1[nH]c2ccc(O)c(-c3ccc(S(=O)(=O)NCCCl)cc3)c2c2c1CCC2 [US8962648, 1145] | 13 nM
19 | CN(C)CC1(c2ccc(-c3c(O)ccc4[nH]c(=O)c5sccc5c34)cc2)CC1 [US8962648, 379] | 3.6 nM
20 | NCCc1ccc(-c2c(O)ccc3[nH]c(=O)c4sccc4c23)cc1F [US8962648, 276] | 0.5 nM

Row | SMILES | IC50
21 | O=c1[nH]c2ccc(O)c(-c3ccc(CN4CCC(O)C4)c(F)c3)c2c2ccsc12 (centres undefined) [US8962648, 278] | 0.97 nM
22 | CS(=O)(=O)NCc1ccc(-c2c(O)ccc3[nH]c(=O)c4sccc4c23)cc1 [US8962648, 212] | 5.5 nM
23 | N#CCc1ccc(-c2c(O)ccc3[nH]c(=O)c4sccc4c23)cc1 [US8962648, 81] | 12 nM
24 | CC[C@@H](c1ccc(-c2c(O)ccc3[nH]c(=O)c4sccc4c23)cc1)N(C)C [US8962648, 1128] | 2.2 nM
25 | CC(CN)c1ccc(-c2c(O)ccc3[nH]c(=O)c4sccc4c23)cc1F (centres undefined) [US8962648, 1174] | 1.5 nM
26 | N#CCCc1ccc(-c2c(O)ccc3[nH]c(=O)c4sccc4c23)cc1 [US8962648, 290] | 3.2 nM
27 | CN[C@@H](C)c1ccc(-c2c(O)cc(Cl)c3[nH]c(=O)c4sccc4c23)cc1 [US8962648, 1087] | 19 nM
28 | O=c1[nH]c2ccc(O)c(-c3ccc(S(=O)(=O)NCCCl)cc3)c2c2ccsc12 [US8962648, 332] | 23 nM
29 | CC[C@H](NC)c1ccc(-c2c(O)ccc3[nH]c(=O)c4sccc4c23)cc1 [US8962648, 1148] | 1.3 nM
30 | Nc1ccc(-c2c(O)ccc3[nH]c(=O)c4sccc4c23)cc1O [US8962648, 217] | 2.3 nM
31 | COc1ccc2[nH]c(=O)c3sccc3c2c1/C=C/CN1CCC(N)CC1 [US8962648, 152] | 31 nM
32 | O=c1[nH]c2ccc(O)c(-c3ccc(S(=O)(=O)NCCBr)cc3)c2c2c1CCC2 [US8962648, 1094] | 10 nM
33 | NCC1(c2ccc(-c3c(O)ccc4[nH]c(=O)c5sccc5c34)cc2)CC1 [US8962648, 348] | 1.9 nM
34 | O=c1[nH]c2ccc(O)c(-c3ccc(S(=O)(=O)NCCBr)c(F)c3)c2c2ccsc12 [US8962648, 297] | 13 nM
35 | CNCc1ccc(-c2c(O)ccc3[nH]c(=O)c4sccc4c23)cc1 [US8962648, 187] | 0.9 nM
36 | N#CC1(c2ccc(-c3c(O)ccc4[nH]c(=O)c5sccc5c34)cc2)CC1 [US8962648, 361] | 32 nM
37 | CCC(CN)c1ccc(-c2c(O)cc(Cl)c3[nH]c(=O)c4sccc4c23)cc1 (centres undefined) [US8962648, 1312] | 19 nM
38 | COc1cc(Br)c2[nH]c(=O)c3sccc3c2c1-c1ccc(C2(CN)CC2)cc1 [US8962648, 1391] | 70 nM
39 | CC(NC1CCCC1)c1ccc(-c2c(O)ccc3[nH]c(=O)c4sccc4c23)cc1 (centres undefined) [US8962648, 314] | 2.8 nM
40 | C[C@@H](c1ccc(-c2c(O)ccc3[nH]c(=O)c4sccc4c23)cc1)N(C)C [US8962648, 335] | 2.9 nM

Row | SMILES | IC50
41 | Cc1cc(O)c(-c2ccc(C(C)(C)N)cc2)c2c1[nH]c(=O)c1sccc12 [US8962648, 1330] | 8.3 nM
42 | CN(C)CCc1ccc(-c2c(O)ccc3[nH]c(=O)c4sccc4c23)cc1 [US8962648, 93] | 5.4 nM
43 | C[C@H](N)c1ccc(-c2c(O)ccc3[nH]c(=O)c4sccc4c23)cc1 [US8962648, 233] | 0.81 nM
44 | CCNC(C)c1ccc(-c2c(O)ccc3[nH]c(=O)c4sccc4c23)cc1 (centres undefined) [US8962648, 385] | 3.9 nM
45 | CN(C)C1CCCN(CCCc2c(O)ccc3[nH]c(=O)c4sccc4c23)C1 (centres undefined) [US8962648, 298] | 83 nM
46 | CC[C@H](c1ccc(-c2c(O)ccc3[nH]c(=O)c4sccc4c23)cc1)N(C)C [US8962648, 1151] | 2.5 nM
47 | CC(CN)c1ccc(-c2c(O)ccc3[nH]c(=O)c4sccc4c23)cc1Cl (centres undefined) [US8962648, 1280] | 10 nM
48 | COc1cc(C)c2[nH]c(=O)c3sc(Cl)cc3c2c1-c1ccc([C@@H](C)CN)cc1 [US8962648, 1354] | 11 nM
49 | NCc1ccc(-c2c(O)ccc3[nH]c(=O)c4sccc4c23)cc1 [US8962648, 73] | 0.63 nM and 0.38 nM
50 | C[C@@H](NS(C)(=O)=O)c1ccc(-c2c(O)ccc3[nH]c(=O)c4sccc4c23)cc1 [US8962648, 301] | 3.2 nM
51 | CC(N)Cc1ccc(-c2c(O)ccc3[nH]c(=O)c4sccc4c23)cc1 (centres undefined) [US8962648, 1095] | 1.3 nM
52 | NCCc1cc(Br)c(-c2c(O)ccc3[nH]c(=O)c4sccc4c23)cc1O [US8962648, 1224] | 6.4 nM
53 | NC1Cc2ccc(-c3c(O)ccc4[nH]c(=O)c5sccc5c34)cc2C1 (centres undefined) [US8962648, 345] | 1.2 nM
54 | CN(C)Cc1ccc(-c2c(O)ccc3[nH]c(=O)c4sccc4c23)cc1 [US8962648, 165] | 6.9 nM
55 | CC(C)OC(=O)Oc1ccc2[nH]c(=O)c3sccc3c2c1-c1ccc(C(C)N)cc1 (centres undefined) [US8962648, 1077] | 76 nM
56 | COc1cc(C)c2[nH]c(=O)c3sccc3c2c1-c1ccc(C2(CN)CC2)cc1 [US8962648, 1251] | 55 nM
57 | COc1ccc2[nH]c(=O)c3sccc3c2c1-c1ccc(CN(C)C)cc1 [US8962648, 164] | 11 nM
58 | N#CCc1ccc(-c2c(O)ccc3[nH]c(=O)c4sccc4c23)cc1F [US8962648, 261] | 15 nM
59 | Cc1cc2c(s1)c(=O)[nH]c1ccc(O)c(-c3ccc(CN)cc3)c12 [US8962648, 95] | 4.4 nM

From BindingDB's records for patent US8962648 (Oncotherapy Science, 2015)
